Assay results taken from patent publication US6964870B2, “Enhanced selection of genetically modified pine embryogenic tissue” (MeadWestvaco Corporation, priority 2000, dated 2005).

Key:
Type in all cases: cell-based
[1] = system: cell lines that are progeny of the elite P. taeda line 7-56; experiment: Biolistic transformation, ABA in recovery and selection media (Example 2)
Method: Loblolly pine cell lines were used which had been grown and maintained as described in Example 1 above, and prepared for biolistic transformation as described in Example 1 above. In this example, only cell lines that are progeny of the elite P. taeda line 7-56 were used. Following bombardment the support membranes bearing the bombarded embryogenic cells were transferred to DCR2 maintenance media, either with or without the addition of 10 mg/l ABA for one week. Following this the support membranes bearing the bombarded embryogenic cells were placed on plates containing gelled DCR selection medium with 10 mg/l abscisic acid (ABA), and cultured for three days, so that all cells were exposed to 10 mg/l ABA in the selection medium for the first three days of selection. Following this the support membranes bearing the bombarded embryogenic cells were evenly divided among gelled media containing 5, 10, or 20 mg/l ABA for a period of two weeks. Following this, the support membranes bearing the bombarded embryogenic cells were evenly divided among gelled media containing 0, 5, 10, or 20 mg/l ABA for the remaining selection period, and transferred every three weeks to fresh selection media of the same composition.
The cells were also checked for the presence of sequences by PCR amplification using primers specific for both the uidA and nptII transgenes, techniques well known to those skilled in the art of plant transformation.

[2] = system: P. taeda embryogenic cell line P1; experiment: Agrobacterium transformation, transformants per selection plate with ABA in preparation/recovery/selection media
Description: (§1) Seven loblolly pine cell lines or hybrid cell lines from seven widely diverse genetic backgrounds were used in this experiment. To prepare for gene transfer using Agrobacterium, fabric supports were sterilized by autoclaving and placed in a sterile Buchner funnel, and one to five milliliters of embryogenic suspension was pipetted onto each support such that the embryogenic tissue was evenly distributed over its surface. Following this the liquid medium was suctioned from the tissues and each support bearing the embryogenic tissue was placed on gelled medium for inoculation by Agrobacterium. In this case the medium used was the same as the preparation medium described in Example 1 above, except that the medium, used here for preparation and co-cultivation of the cells, contained ABA at 0, 10, or 30 mg/L as an experimental condition. Genes were then introduced into the plant material by co-cultivation with Agrobacterium(Wenck et al. 1999). Specifically, gene constructs containing a reporter gene and a selectable marker were introduced into Agrobacterium tumefaciens strain EHA105 with the virulence-enhancing plasmid pTOK47 (Wenck et al. 1999), by techniques well known to those skilled in the art, and virulence was then induced with administration of acetosyringone by commonly used techniques, well known to those skilled in the art, whereupon the induced Agrobacterium was dripped over the plant material and these were co-cultivated in the dark at 23°±2° C. for approximately 24-72 hours. Those skilled in the art recognize that many different gene constructs, plasmids, strains, media, and co-cultivation times and protocols would be suitable for use in the present method.
(§2) Following co-cultivation, cells were re-suspended into fresh DCR4 liquid wash medium (Table 2) containing eradicants such as 200-400 mg/L TIMENTIN® antibiotic. The DCR4 liquid wash medium was contained in sterile “baby food” jars with MAGENTA® aerated lids, conventional beakers, or multi-well plates. Resuspension was initiated by grasping the membrane support bearing the infected cells, using forceps, and rolling or folding it so that it could be taken up and placed into the liquid in the wash container. The liquid was then agitated to get the cells into suspension, and the membrane support was scraped with sterile forceps if cells appeared to be adhering to it. Once the cells were in suspension, the membrane was removed with sterile forceps.
(§3) Following this wash step, the cells were plated onto fresh sterile support membranes of the same type as used in the previous step, again by placing the fresh sterile support membranes in a sterile Buchner funnel, pipetting the suspension of plant cells onto the membranes, and again suctioning the liquid medium from the tissues using a mild vacuum. The cells were again resuspended in and cultured in fresh sterile wash medium by agitating the membrane bearing the cells in the liquid, again removing cells that appeared to be adhering by gently scraping with forceps. The cells were then re-plated on fresh membrane supports over Buchner funnels. This procedure was repeated twice before the cells were again plated on supports as described above.
(§4) Supports bearing approximately 0.1 g of embryogenic tissue were divided onto recovery media (having the same formulation as the maintenance medium except for the addition of 400 mg/L TIMENTIN® antibiotic) either containing or lacking ABA. […] Concentrations of ABA used in all these media were 0, 10, and 30 mg/l.
(§5) Cells were maintained on the selection media, with transfer of the polyester support membranes to fresh selection media of the same composition, every two weeks for a total of eight weeks of selection. Cells from actively growing sublines from selection were examined using stereomicroscopes for the expression of the visual marker gene uidA at the conclusion of the selection period. […]

[3] = system: P. rigida Hybrid embryogenic cell line H1; experiment: as above
Description: as §1, §2, §3, §4, §5

[4] = system: P. taeda embryogenic cell line P4; experiment: as above
Description: as §1, §2, §3, §4, §5

[5] = system: P. taeda embryogenic cell line P3; experiment: as above
Description: as §1, §2, §3, §4, §5

[6] = system: P. taeda embryogenic cell line P6; experiment: as above
Description: as §1, §2, §3, §4, §5

[7] = system: P. taeda embryogenic cell line P2; experiment: as above
Description: as §1, §2, §3, §4, §5

[8] = system: P. taeda embryogenic cell line P5; experiment: as above
Description: as §1, §2, §3, §4, §5

[9] = ABA mg/l in preparation/recovery/selection medium 0/0/10
[10] = ABA mg/l in preparation/recovery/selection medium 0/0/30
[11] = ABA mg/l in preparation/recovery/selection medium 0/10/10
[12] = ABA mg/l in preparation/recovery/selection medium 0/10/30
[13] = ABA mg/l in preparation/recovery/selection medium 0/30/30
[14] = ABA mg/l in preparation/recovery/selection medium 10/10/10
[15] = ABA mg/l in preparation/recovery/selection medium 30/10/10
[16] = ABA mg/l in preparation/recovery/selection medium 30/30/30

CC1=CC(=O)CC(C)(C)[C@@]1(O)/C=C/C(C)=C\C(=O)O [ABA, abscisic acid]
number of transformants detected ([1]; 10 mg/L ABA in the recovery media): did not significantly increase the number of transformants detected
transformants recovered after ten weeks of selection ([1]; 5, 10, or 20 mg/l ABA present for the latter 9 weeks of selection): Transformants were recovered
transformants recovered after ten weeks of selection ([1]; ABA concentration increased to 20 mg/l after the first transfer on selection media): the largest number of transformants were recovered
Average (n = 12) Number of Transformants observed per Selection Plate [2, 9]: 0.3 +/− 0.9
Average (n = 12) Number of Transformants observed per Selection Plate [2, 10]: 0.0 +/− 0.0
Average (n = 12) Number of Transformants observed per Selection Plate [2, 11]: 0.0 +/− 0.0
Average (n = 12) Number of Transformants observed per Selection Plate [2, 12]: 0.1 +/− 0.3
Average (n = 12) Number of Transformants observed per Selection Plate [2, 13]: 0.8 +/− 0.6
Average (n = 12) Number of Transformants observed per Selection Plate [2, 14]: 1.3 +/− 0.9
Average (n = 12) Number of Transformants observed per Selection Plate [2, 15]: 0.3 +/− 0.5
Average (n = 12) Number of Transformants observed per Selection Plate [2, 16]: 0.4 +/− 0.8
Average (n = 12) Number of Transformants observed per Selection Plate [3, 9]: 27.0 +/− 11.2
Average (n = 12) Number of Transformants observed per Selection Plate [3, 10]: 21.1 +/− 6.5
Average (n = 12) Number of Transformants observed per Selection Plate [3, 11]: 19.0 +/− 6.5
Average (n = 12) Number of Transformants observed per Selection Plate [3, 12]: 21.6 +/− 8.6
Average (n = 12) Number of Transformants observed per Selection Plate [3, 13]: 15.1 +/− 4.9
Average (n = 12) Number of Transformants observed per Selection Plate [3, 14]: 21.9 +/− 8.4
Average (n = 12) Number of Transformants observed per Selection Plate [3, 15]: 22.9 +/− 10.1
Average (n = 12) Number of Transformants observed per Selection Plate [3, 16]: 21.8 +/− 9.9
Average (n = 12) Number of Transformants observed per Selection Plate [4, 9]: 27.5 +/− 11.4
Average (n = 12) Number of Transformants observed per Selection Plate [4, 10]: 34.9 +/− 9.7
Average (n = 12) Number of Transformants observed per Selection Plate [4, 11]: 28.8 +/− 11.6
Average (n = 12) Number of Transformants observed per Selection Plate [4, 12]: 30.9 +/− 9.3
Average (n = 12) Number of Transformants observed per Selection Plate [4, 13]: 28.6 +/− 7.6
Average (n = 12) Number of Transformants observed per Selection Plate [4, 14]: 27.8 +/− 9.0
Average (n = 12) Number of Transformants observed per Selection Plate [4, 15]: 22.7 +/− 7.0
Average (n = 12) Number of Transformants observed per Selection Plate [4, 16]: 27.3 +/− 7.4
Average (n = 12) Number of Transformants observed per Selection Plate [5, 9]: 21.7 +/− 3.6
Average (n = 12) Number of Transformants observed per Selection Plate [5, 10]: 22.3 +/− 5.4
Average (n = 12) Number of Transformants observed per Selection Plate [5, 11]: 23.3 +/− 2.8
Average (n = 12) Number of Transformants observed per Selection Plate [5, 12]: 26.0 +/− 6.9
Average (n = 12) Number of Transformants observed per Selection Plate [5, 13]: 18.6 +/− 5.1
Average (n = 12) Number of Transformants observed per Selection Plate [5, 14]: 22.6 +/− 4.3
Average (n = 12) Number of Transformants observed per Selection Plate [5, 15]: 21.6 +/− 3.6
Average (n = 12) Number of Transformants observed per Selection Plate [5, 16]: 21.1 +/− 2.3
Average (n = 12) Number of Transformants observed per Selection Plate [6, 9]: 3.9 +/− 1.5
Average (n = 12) Number of Transformants observed per Selection Plate [6, 10]: 3.3 +/− 2.8
Average (n = 12) Number of Transformants observed per Selection Plate [6, 11]: 3.2 +/− 1.4
Average (n = 12) Number of Transformants observed per Selection Plate [6, 12]: 3.2 +/− 1.5
Average (n = 12) Number of Transformants observed per Selection Plate [6, 13]: 2.3 +/− 2.6
Average (n = 12) Number of Transformants observed per Selection Plate [6, 14]: 4.5 +/− 1.3
Average (n = 12) Number of Transformants observed per Selection Plate [6, 15]: 3.1 +/− 2.3
Average (n = 12) Number of Transformants observed per Selection Plate [6, 16]: 2.3 +/− 1.1
Average (n = 12) Number of Transformants observed per Selection Plate [7, 9]: 5.8 +/− 2.3
Average (n = 12) Number of Transformants observed per Selection Plate [7, 10]: 8.8 +/− 4.8
Average (n = 12) Number of Transformants observed per Selection Plate [7, 11]: 1.0 +/− 1.0
Average (n = 12) Number of Transformants observed per Selection Plate [7, 12]: 0.3 +/− 0.5
Average (n = 12) Number of Transformants observed per Selection Plate [7, 13]: 5.2 +/− 6.1
Average (n = 12) Number of Transformants observed per Selection Plate [7, 14]: 10.0
Average (n = 12) Number of Transformants observed per Selection Plate [7, 15]: 5.9 +/− 2.4
Average (n = 12) Number of Transformants observed per Selection Plate [7, 16]: 5.3 +/− 2.5
Average (n = 12) Number of Transformants observed per Selection Plate [8, 9]: 18.1 +/− 4.0
Average (n = 12) Number of Transformants observed per Selection Plate [8, 10]: 5.5 +/− 3.1
Average (n = 12) Number of Transformants observed per Selection Plate [8, 11]: 2.4 +/− 2.0
Average (n = 12) Number of Transformants observed per Selection Plate [8, 12]: 7.2 +/− 2.1
Average (n = 12) Number of Transformants observed per Selection Plate [8, 13]: 3.3 +/− 2.1
Average (n = 12) Number of Transformants observed per Selection Plate [8, 14]: 10.3 +/− 2.4
Average (n = 12) Number of Transformants observed per Selection Plate [8, 15]: 11.3 +/− 2.4
Average (n = 12) Number of Transformants observed per Selection Plate [8, 16]: 14.3 +/− 3.5
